Measured values as given in patent US20240270821A1, “GIP/GLP1/GCG TRI-RECEPTOR AGONISTS AND USES THEREOF” (priority 2023, published 2024).
pEC50: −log10 of the molar value. Read-outs that look alike come from different tables or passages of the source. Starred links: 1 amine or outer side, 2 acyl side, 3 side chain; linkers in the order of their positions; H or OH if unused. Non-standard residues stand in square brackets, D forms with d. Groups on a side chain read outwards from the residue. No end group written: not given here. *: point of attachment. C20 diacid = O=C(O)CCCCCCCCCCCCCCCCCCC(=O)*; C18 diacid = O=C(O)CCCCCCCCCCCCCCCCC(=O)*; Phe(4-CN) = N#Cc1ccc(C[C@H](N)C(=O)O)cc1; αMePhe(2-F) = C[C@](N)(Cc1ccccc1F)C(=O)O; γGlu = O=C(O)[C@H](CCC(=O)[*:2])N[*:1]; αMe4Pal = C[C@](N)(Cc1ccncc1)C(=O)O; αMeY = C[C@](N)(Cc1ccc(O)cc1)C(=O)O; 4Pal = N[C@@H](Cc1ccncc1)C(=O)O; αMeL = CC(C)C[C@](C)(N)C(=O)O; αMeS = C[C@](N)(CO)C(=O)O; Orn = NCCC[C@H](N)C(=O)O; Dab = NCC[C@H](N)C(=O)O; AEEA = NCCOCCOCC(=O)O; Aib = CC(C)(N)C(=O)O

Key:
Format in all cases: cell-based
hGLP-1R [1] = target: T1, hGLP-1R (Homo sapiens, UniProt P43220); assay: Functional cAMP activity in the presence of 1% HSA; conditions: read-out: cAMP Rel EC50, hGLP-1R
T1 sequence (P43220 24-463): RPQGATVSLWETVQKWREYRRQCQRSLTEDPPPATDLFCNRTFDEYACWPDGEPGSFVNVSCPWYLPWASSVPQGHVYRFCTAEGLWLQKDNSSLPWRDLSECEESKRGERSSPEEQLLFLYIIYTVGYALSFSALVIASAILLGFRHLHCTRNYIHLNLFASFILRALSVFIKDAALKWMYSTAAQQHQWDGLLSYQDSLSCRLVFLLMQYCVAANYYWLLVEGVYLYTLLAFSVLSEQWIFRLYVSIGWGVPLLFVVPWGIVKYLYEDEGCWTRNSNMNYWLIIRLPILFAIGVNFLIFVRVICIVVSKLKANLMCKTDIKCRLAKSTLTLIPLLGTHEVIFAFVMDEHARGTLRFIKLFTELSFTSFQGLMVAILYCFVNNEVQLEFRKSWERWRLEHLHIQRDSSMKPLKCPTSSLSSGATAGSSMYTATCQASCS

hGLP-1R [2] = target: T1, hGLP-1R; assay: Functional cAMP activation in the presence of 0.1% casein (no HSA); conditions: read-out: Relative cAMP EC50, hGLP-1R;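 also: intracellular cAMP rise after 30 min at 37 °C read by HTRF, normalized between buffer only (0%) and maximal control ligand (100%), four-parameter variable-slope fit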
human GcgR = human GcgR (Homo sapiens, UniProt P47871); assay: Functional cAMP activity in the presence of 1% HSA; conditions: read-out: cAMP Rel EC50, hGcgR
Sequence of human GcgR (P47871 26-477): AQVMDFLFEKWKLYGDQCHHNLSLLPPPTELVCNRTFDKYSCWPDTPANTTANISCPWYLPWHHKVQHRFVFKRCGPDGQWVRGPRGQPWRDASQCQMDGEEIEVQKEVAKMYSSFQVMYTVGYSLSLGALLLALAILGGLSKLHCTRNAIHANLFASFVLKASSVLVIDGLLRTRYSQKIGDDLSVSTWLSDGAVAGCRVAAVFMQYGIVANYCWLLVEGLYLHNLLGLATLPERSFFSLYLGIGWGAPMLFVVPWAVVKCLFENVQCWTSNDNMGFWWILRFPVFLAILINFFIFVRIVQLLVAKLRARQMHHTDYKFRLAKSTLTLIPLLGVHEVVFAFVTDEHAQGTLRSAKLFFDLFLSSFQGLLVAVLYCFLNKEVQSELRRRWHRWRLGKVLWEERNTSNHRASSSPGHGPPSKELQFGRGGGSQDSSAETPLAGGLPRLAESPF

hGIPR [3] = target: T2, hGIPR (Homo sapiens, UniProt P48546); assay: Functional cAMP activation in the presence of 0.1% casein (no HSA); conditions: read-out: Relative cAMP EC50, hGIPR;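 also: intracellular cAMP rise after 30 min at 37 °C read by HTRF against a standard curve, scaled between buffer alone (0%) and top control ligand concentration (100%), four-parameter fit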
T2 sequence (P48546 22-466): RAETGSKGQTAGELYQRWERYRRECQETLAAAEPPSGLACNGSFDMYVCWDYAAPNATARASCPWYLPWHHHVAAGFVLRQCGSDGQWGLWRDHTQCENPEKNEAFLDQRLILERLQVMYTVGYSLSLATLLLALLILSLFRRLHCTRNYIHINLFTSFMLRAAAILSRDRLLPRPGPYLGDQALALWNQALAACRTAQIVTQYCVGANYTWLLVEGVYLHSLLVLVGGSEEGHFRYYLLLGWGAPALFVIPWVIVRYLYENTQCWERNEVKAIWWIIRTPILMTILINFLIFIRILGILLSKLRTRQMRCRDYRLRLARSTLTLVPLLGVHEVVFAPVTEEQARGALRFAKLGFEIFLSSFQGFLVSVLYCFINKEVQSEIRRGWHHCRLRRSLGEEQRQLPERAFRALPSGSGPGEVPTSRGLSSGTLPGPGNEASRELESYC

hGIPR [4] = target: T2, hGIPR; assay: Functional cAMP activity in the presence of 1% HSA; conditions: read-out: cAMP Rel EC50, hGIPR
hGcgR = hGcgR (Homo sapiens, UniProt P47871); assay: Functional cAMP activation in the presence of 0.1% casein (no HSA); conditions: read-out: Relative cAMP EC50, hGcgR;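 also: intracellular cAMP rise after 30 min at 37 °C, read by HTRF against a cAMP standard curve, scaled from buffer only (0%) to maximal control ligand response (100%)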
Sequence of hGcgR (P47871 26-477): as the sequence (P47871 26-477) above

[5] = 0.1% casein, no HSA, geometric mean
[6] = in the presence of 0.1% casein (no HSA), geometric mean

pEC50 (hGLP-1R [2]; [5]) | pEC50 (hGIPR [3]; [5]) | pEC50 (hGcgR; [5]) | pEC50 (hGLP-1R [2]) | pEC50 (hGIPR [3]) | pEC50 (hGcgR) | Molecule | pEC50 (hGLP-1R [1]) | pEC50 (human GcgR) | pEC50 (hGIPR [4]) | pEC50 (hGLP-1R [2]; [6]) | pEC50 (hGIPR [3]; [6]) | pEC50 (hGcgR; [6])
9.28 | 11.04 | 8.45 |  |  |  | H-Y[Aib]QGT[αMePhe(2-F)]TSD[4Pal][αMeS]I[αMeL]LD[Orn]K([AEEA-AEEA-γGlu-C18 diacid])AQ[αMe4Pal]EFI[dE][αMeY]LIEGGPSSGEPPPSGS-NH2 [Example 1208] | 7.35 | 6.35 | 9.10 |  |  | 
 |  |  | 9.23 | 10.34 | 8.24 | CC[C@H](C)[C@H](NC(=O)[C@H](Cc1ccccc1)NC(=O)[C@H](CCCN)NC(=O)C(C)(C)NC(=O)[C@H](CCC(N)=O)NC(=O)[C@H](C)NC(=O)[C@H](CCCCNC(=O)[C@@H](CCC(=O)O)NC(=O)CC[C@H](NC(=O)CCCCCCCCCCCCCCCCC(=O)O)C(=O)O)NC(=O)[C@H](CCCN)NC(=O)[C@H](CC(=O)O)NC(=O)[C@H](CC(C)C)NC(=O)[C@](C)(CC(C)C)NC(=O)[C@@H](NC(=O)[C@](C)(CO)NC(=O)[C@H](Cc1ccncc1)NC(=O)[C@H](CC(=O)O)NC(=O)[C@H](CO)NC(=O)[C@@H](NC(=O)[C@](C)(Cc1ccccc1F)NC(=O)[C@@H](NC(=O)CNC(=O)[C@H](CCC(N)=O)NC(=O)C(C)(C)NC(=O)[C@@H](N)Cc1ccc(O)cc1)[C@@H](C)O)[C@@H](C)O)[C@@H](C)CC)C(=O)N[C@H](CCC(=O)O)C(=O)N[C@@](C)(Cc1ccc(O)cc1)C(=O)N[C@@H](CC(C)C)C(=O)N[C@@H](CCC(N)=O)C(=O)N[C@@H](CCC(=O)O)C(=O)NCC(=O)NCC(=O)N1CCC[C@H]1C(=O)N[C@@H](CO)C(=O)N[C@@H](CO)C(=O)NCC(=O)N[C@@H](CCC(=O)O)C(=O)N1CCC[C@H]1C(=O)N1CCC[C@H]1C(=O)N1CCC[C@H]1C(=O)N[C@@H](CCC(=O)O)C(=O)NCC(=O)N[C@H](C(=O)N[C@@H](CCC(=O)O)C(=O)N[C@@H](CCC(=O)O)C(=O)N[C@@H](CCC(=O)O)C(N)=O)[C@@H](C)O [Example 596] | 7.44 | 6.41 | 8.70 |  |  | 
 |  |  |  |  |  | Y[Aib]QGTFTSD[4Pal]SR[αMeL]LDKK([AEEA-γGlu-C18 diacid])AQ[αMe4Pal]AFIEYLIEGGESSGAPPPSGS-NH2 [Example 792] | 6.21 | 6.42 | 6.97 | 8.52 | 9.26 | 8.72
 |  |  |  |  |  | H-Y[Aib]QGTFTSD[4Pal]S[Orn][αMeL]LD[Orn]K([γGlu-γGlu-C18 diacid])AQ[αMe4Pal]AFIE[αMeY]LIEGGPSSGAPPPSGS-NH2 [Example 1013] | 6.86 | 6.55 | 7.65 | 9.35 | 9.68 | 8.70
 |  |  | 8.95 | 10.01 | 8.37 | H-Y[Aib]QGT[αMePhe(2-F)]TSD[4Pal][αMeS]I[αMeL]LD[Orn]K([γGlu-γGlu-C18 diacid])AQ[Aib][Orn]FI[dE][αMeY]LAEGGPSSGEPPPSGEEE-NH2 [Example 592] | 7.25 | 6.71 | 8.39 |  |  | 
 |  |  |  |  |  | H-Y[Aib]QGTFTSDFS[Dab][αMeL]LDKK([AEEA-γGlu-C18 diacid])AQ[Aib]AFIEYLIE[Aib]GPSSGAPPPSGS-NH2 [Example 799] | 6.75 | 6.24 | 7.74 | 9.34 | 10.18 | 8.79
 |  |  | 9.61 | 11.00 | 8.70 | H-Y[Aib]QGT[αMePhe(2-F)]TSD[4Pal]SI[αMeL]LD[Orn]K([AEEA-γGlu-C18 diacid])AQ[αMe4Pal][Orn]FI[dE][αMeY]LIEGGPSSGEPPPEGTGE-NH2 [Example 680] | 7.54 | 6.59 | 8.98 |  |  | 
 |  |  |  |  |  | H-Y[Aib]QGTFTSD[4Pal]S[Orn][αMeL]LD[Orn]K([γGlu-γGlu-C18 diacid])AQ[Aib]AFIEYLLAGGPSSGAPPPSGSEE-NH2 [Example 1069] | 5.89 | 5.67 | 7.40 | 8.05 | 9.38 | 7.67
 |  |  |  |  |  | H-Y[Aib]QGTFTSD[4Pal]SQ[αMeL]LDKK([Glu-γGlu-C18 diacid])AQ[αMe4Pal]AFIEYLIAGGPSSGAPPPSGEEE-NH2 [Example 1089] | 6.35 | 5.59 | 7.46 | 8.53 | 9.67 | 7.85
 |  |  |  |  |  | H-Y[Aib]QGTFTSDFSK[αMeL]LDKK([AEEA-γGlu-C20 diacid])AQ[Aib]AFIEWLLAGGPSSGEPPPSEG-NH2 [Example 20] | 6.49 | 6.23 | 7.37 | 8.61 | 9.42 | 7.81
 |  |  |  |  |  | H-Y[Aib]QGT[αMePhe(2-F)]TSD[Phe(4-CN)]SILLDKQAQK([AEEA-AEEA-γGlu-C20 diacid])AFIEYLLEGGPSSGEPPPSAG-NH2 [Example 350] | 6.44 | 5.42 | 7.47 | 9.11 | 9.97 | 7.98
 |  |  | 9.76 | 10.90 | 8.28 | H-Y[Aib]QGT[αMePhe(2-F)]TSD[4Pal]SI[αMeL]LD[Orn]K([AEEA-γGlu-C18 diacid])AQ[Aib][Orn]FIEYLIEGGPSSGEPPPEEG-NH2 [Example 477] | 7.73 | 6.15 | 8.84 |  |  | 
 |  |  |  |  |  | H-Y[Aib]QGTFTSD[4Pal]S[Orn][αMeL]LD[Orn]K([γGlu-γGlu-C18 diacid])AQ[αMe4Pal]EFIE[αMeY]LIEGGPSSGAPPPSGSEE-NH2 [Example 973] | 5.94 | 5.64 | 7.22 | 8.21 | 9.30 | 7.75
 |  |  |  |  |  | H-Y[Aib]QGTFTSDFSK[αMeL]LDKK([AEEA-AEEA-γGlu-C18 diacid])AQ[Aib]AFIEYLLEGGESSGAPPPSGS-NH2 [Example 147] | 6.02 | 6.06 | 6.97 | 8.37 | 9.46 | 8.36
 |  |  | 9.22 | 10.19 | 8.28 | Y[Aib]QGT[αMePhe(2-F)]TSD[4Pal][αMeS]I[αMeL]LD[Orn]K([γGlu-γGlu-C18 diacid])AQ[Aib][Orn]FI[dE][αMeY]LTEGGPSSGEPPPEGTEE-NH2 [Example 597] | 7.44 | 6.48 | 8.62 |  |  | 
 |  |  |  |  |  | H-Y[Aib]QGTFTSDFS[Orn][αMeL]LDKK([AEEA-γGlu-C18 diacid])AQ[Aib]AFIEYLIE[Aib]SPSSGAPPPSGS-NH2 [Example 804] | 6.79 | 5.64 | 7.75 | 9.04 | 10.12 | 7.94
 |  |  |  |  |  | H-Y[Aib]QGTFTSD[4Pal]SQ[αMeL]LDKK([γGlu-γGlu-C18 diacid])AQ[αMe4Pal]AFIEYLIE[Aib]GPSSGAPPPSGTE-NH2 [Example 1126] | 6.68 | 6.34 | 7.87 | 8.34 | 9.76 | 8.41

Molecule | pEC50 (hGLP-1R [2]; [5]) | pEC50 (hGIPR [3]; [5]) | pEC50 (hGcgR; [5]) | pEC50 (hGLP-1R [2]) | pEC50 (hGIPR [3]) | pEC50 (hGcgR) | pEC50 (hGLP-1R [1]) | pEC50 (human GcgR) | pEC50 (hGIPR [4]) | pEC50 (hGLP-1R [2]; [6]) | pEC50 (hGIPR [3]; [6]) | pEC50 (hGcgR; [6])
CC[C@H](C)[C@H](NC(=O)[C@H](CO)NC(=O)[C@H](Cc1ccc(O)cc1)NC(=O)[C@H](CC(=O)O)NC(=O)[C@H](CO)NC(=O)[C@@H](NC(=O)[C@](C)(Cc1ccccc1)NC(=O)[C@@H](NC(=O)CNC(=O)[C@H](CCC(N)=O)NC(=O)C(C)(C)NC(=O)[C@@H](N)Cc1ccc(O)cc1)[C@@H](C)O)[C@@H](C)O)C(=O)N[C@@H](CC(C)C)C(=O)N[C@@H](CC(C)C)C(=O)N[C@@H](CC(=O)O)C(=O)N[C@@H](CCCCN)C(=O)N[C@@H](CCCCNC(=O)COCCOCCNC(=O)COCCOCCNC(=O)CC[C@H](NC(=O)CCCCCCCCCCCCCCCCC(=O)O)C(=O)O)C(=O)N[C@@H](C)C(=O)N[C@@H](CCC(N)=O)C(=O)NC(C)(C)C(=O)N[C@@H](C)C(=O)N[C@@H](Cc1ccccc1)C(=O)N[C@H](C(=O)N[C@H](CCC(=O)O)C(=O)N[C@@H](Cc1ccc(O)cc1)C(=O)N[C@@H](CC(C)C)C(=O)N[C@@H](CC(C)C)C(=O)N[C@@H](CCC(=O)O)C(=O)NCC(=O)NCC(=O)N1CCC[C@H]1C(=O)N[C@@H](CO)C(=O)N[C@@H](CO)C(=O)NCC(=O)N[C@@H](C)C(=O)N1CCC[C@H]1C(=O)N1CCC[C@H]1C(=O)N1CCC[C@H]1C(=O)N[C@@H](CO)C(N)=O)[C@@H](C)CC [Example 419] |  |  |  | 9.21 | 10.63 | 8.07 | 7.18 | 5.78 | 8.02 |  |  | 
H-Y[Aib]QGT[αMePhe(2-F)]TSD[4Pal]SILLD[Orn]K([γGlu-γGlu-C18 diacid])AQ[Aib]AFIE[αMeY]LEEGGPSSGAPPPSGTGE-NH2 [Example 665] |  |  |  | 9.55 | 10.65 | 8.53 | 7.48 | 6.55 | 8.68 |  |  | 
